Results taken from patent US11819556B2, “Stabilized compositions of radionuclides and uses thereof” (RayzeBio, Inc., priority 2021, dated 2023).
Read-outs that look alike come from different tables or passages of the source.

Conditions: 0.03 mCi/ml, excipient 1 mg/ml in sodium acetate-acetic acid buffer pH 5.80, 25° C.
Method: After drying in an incubator at a temperature of 38° C., the radio-TLC conversion was analyzed at different time points with a radio-TLC reader (Eckert & Ziegler AR-2000) set at High Voltage=1000 (to ensure alpha detection) until the ratio between labeled product and the free Ac225 ion no longer change (typically after 6-8 hours of TLC separation to ensure equilibrium between Ac225 and daughter nuclides).
The formulations were buffered with sodium acetate-acetic acid 0.4 M solution to pH 5.80 (±0.10). […] Sodium L-Ascorbate/L-Ascorbic acid buffer was adjusted to pH 5.80 (±0.10). Water for Injection (WFI) with the same dilution without any excipient is used as the control formulation. The mixture was kept at room temperature (25° C.).

Percentage of ^225Ac present in [^225Ac]Ac-DOTA-TATE (24 hours after mixing) [%]	Percentage of ^225Ac present in [^225Ac]Ac-DOTA-TATE (48 hours after mixing) [%]	Compound
90.20	82.18	O=C(O)CC(O)(CC(=O)O)C(=O)O [Citric Acid]
93.45	87.66	N[C@H](CS)C(=O)O [D-Cysteine]
95.77	91.38	O=C(O)CN(CCN(CC(=O)O)CC(=O)O)CCN(CC(=O)O)CC(=O)O [DTPA, Diethylenetriaminepentaacetic acid]
93.39	89.58	CSCC[C@H](N)C(=O)O [L-Methionine]
91.19	87.41	CC(=O)N[C@@H](CS)C(=O)O [N-Acetyl-L-Cysteine]
93.08	87.65	O=C(O)c1ccccc1O [Salicylic Acid]
–	92.21	O=C1O[C@H]([C@@H](O)CO)C([O-])=C1O.[Na+] [Sodium Ascorbate, pH 5.8, Sodium Ascorbate]

Compound	Percentage of ^225Ac present in [^225Ac]Ac-DOTA-TATE (24 hours after mixing) [%]	Percentage of ^225Ac present in [^225Ac]Ac-DOTA-TATE (48 hours after mixing) [%]
O=C(O)CCCC[C@@H]1CCSS1 (racemic) [Lipoic Acid]	92.97	87.93
CCO [10% EtOH, EtOH]	96.35	92.16
N[C@@H](CCC(=O)N[C@@H](CS)C(=O)NCC(=O)O)C(=O)O [L-Glutathione]	91.18	85.56
NCCCC[C@H](N)C(=O)O [L-Lysine]	95.45	89.52
Oc1ccccc1 [Phenol]	–	87.88
O=S([O-])O.[Na+] [Sodium Bisulfite]	0	–
